Experimental data from patent publication US20040157772A1, “Use of a gatran for the manufacture of a medicament of the treatment of pulmonary fibrosis” (priority 2001, published 2004).

What was measured:
[1] = tested on: bleomycin-induced lung fibrosis; assay: Bleomycin-induced lung fibrosis model in rats, inogatran by constant i.v. infusion; type: in vivo, Sprague Dawley rats
Protocol: Forty male Sprague Dawley rats weighing 200 g were kept in cages (2 rats/cage) covered with filter tops to prevent spreading of carcinogenic metabolites of bleomycin. The rats had free access to food and water.
The rats were split into four groups:
Group 1—8 rats—received 0.9% NaCl (1 mL/kg) as a control (only 6 animals were ultimately used, the other 2 were used for different purposes).
Group 2—8 rats—received induction by way of an i.t. 2.5 mg/kg (1 mL/kg) bleomycin instillation (a 15 IE injection solution (Lundbeck)).
Group 3—12 rats—received bleomycin induction as above, plus a constant i.v. infusion of 0.9% NaCl solution (5.0 μL/h) (only 8 animals were ultimately used, the other 4 were used for different purposes).
(§1) Group 4—12 rats—received bleomycin induction as above, plus a constant i.v. infusion of inogatran (5 μmol/kg/h) loaded in Alzet® 2ML2 pumps at a concentration of 200 μmol/mL (88 mg/mL) in 0.9% NaCl (only 8 animals were ultimately used, the other 4 were used for different purposes).
The rats were anaesthetised by way of an i.p. injection (2 mL/kg) of Ketalar™ (50 mg/mL ketamin; Parke-Davis)/Rompun.vet™ (20 mg/mL xylazin; Bayer) (1.75 mL/0.35 mL). A pre-filled minipump connected to a PE60 catheter was inserted into the jugularis vein. A s.c. pocket was created on the back of the animal. The pump was led into this pocket. The incision on the neck was closed with wound clips.
The pre-filled pump with catheter was incubated in 37° C. 0.9% NaCl overnight before implantation to enable immediate pumping after surgery. This was to avoid clotting in the catheter.
After 14 days, all rats received an overdose of pentobarbital (i.p.). The rats were weighed and the lung was dissected and weighed. One lobe was placed in Histofix™ (buffered 5% formaldehyde solution) for histological examination. […]
The following parameters were measured: […]
Total collagen (quantification of hydroxyproline according to the procedure described in Stegemann-Stadler et al, Determinations of Hydroxyproline, Clin. Chim. Acta (1967) 18, 267-273).

[2] = Concentration of inogatran in plasma on day 6; type: in vivo; conditions: Sprague-Dawley, rat, iv, rats, constant i.v. infusion 5 μmol/kg/h from Alzet pumps, day 6 after implantation, approximately
Protocol: as §1
Plasma and bronchiolar lavage fluid (BAL) were collected from four rats in groups 3 and 4, and from two rats in group 1, six days after induction, for quantification of plasma concentration of compound and thrombin activity in BAL.
Concentration of inogatran in plasma on day 6.

concentration at 6 day [2]: 2 to 7 µM
Compound: N=C(N)NCCCNC(=O)[C@@H]1CCCCN1C(=O)[C@@H](CC1CCCCC1)NCC(=O)O [inogatran, HOOC—CH2-(R)Cha-Pic-Nag-H]
hydroxyproline content in the lungs (total collagen) ([1]; bleomycin i.t. 2.5 mg/kg, constant i.v. infusion 5 μmol/kg/h, day 14, vehicle control 2.34±0.14, P=0.0008): 1.37±0.10 μg/mg tissue
inhibition of collagen deposition ([1]; bleomycin-induced rats, constant i.v. infusion, day 14): almost complete inhibition
effect on total lung weight (wet-weight) ([1]; bleomycin-induced rats, inogatran 4-5 μmol/kg/hr): no effect
